The values below come from US9724319B2, “Compositions and methods for the reduction or prevention of hepatic steatosis” (priority 2014, dated 2017).

In experiment [1] the test system is liver mass or hepatic lipid accumulation. The settings on record: 25 mg icariin/kg diet; corresponding to 4 mg/kg body weight/day; cited from earlier work.
The subject of experiment [2] is high fat diet-induced hepatic steatosis. The experiment can be described thus: Liver weight after treatment of high fat diet-induced hepatic steatosis. The settings on record: HFD mice, six weeks, metformin 1.5 g/kg diet. Type of experiment: in vivo, C57Bl/6 mice.
Text: (§1) Chronic high fat diet was used in C57Bl/6 mice as an experimental model of hepatic steatosis. Male C57/BL6 mice were either maintained on standard low-fat diet (control; LFD; 10% energy from fat) or placed on a high fat (HFD; 60% energy from fat, Research Diets #D12492, Research Diets, Inc, New Brunswick, N.J.) at six weeks of age to induce obesity and fatty infiltration of the liver. […] Animals were then randomized to treatments for an additional six weeks, with 10 animals per group, as specified in the following examples.
In this study, the effects of metformin alone (therapeutic dose), subtherapeutic metformin alone, subtherapeutic leucine, and various combinations of leucine, metformin, and resveratrol on liver weight and hepatic lipid accumulation were assessed. The 1.5 g/kg diet of metformin corresponds to a therapeutically effective dose of metformin in humans. […] Likewise, the 24 g/kg dose of leucine represents a sub-therapeutic dose that was predicted to exert no significant independent effects on liver mass or hepatic steatosis. Following induction of hepatic steatosis as described in Example 1, animals were treated according to the following treatment groups as depicted in Table 21:
(§2) In this study, the effects of metformin alone (therapeutic dose) vs. combination therapy with sub-therapeutic amounts of metformin and leucine on liver weight and hepatic lipid accumulation were assessed. Following induction of hepatic steatosis as described in Example 1, animals were treated for six weeks according to the following treatment groups as depicted in Table 22:
Experiment [3] concerns liver triglycerides. The settings on record: Example 3; HFD mice, six weeks; metformin alone 1.5 g/kg diet; combination: leucine + metformin 0.5 g/kg.
Text: as §1, §2
Experiment [4] concerns HFD-induced hepatic steatosis. As to the kind of experiment: Prophylactic treatment concurrent with high fat diet feeding (Examples 6-8). It counts as in vivo, C57Bl/6 mice. The settings on record: treatments and HFD initiated on the same day, six weeks, doses as Tables 25-27. As for the experimental part:
C57Bl/6 mice are assigned to the following experimental groups as depicted in Table 25: Drug treatments and high fat diet feeding (as described in Example 1) are initiated on the same day and are carried out for six weeks. The effects of the treatments and diet on liver mass and hepatic lipid accumulation are assessed as described in the preceding examples. […] C57Bl/6 mice are assigned to the following experimental groups as depicted in Table 26: Drug treatments and high fat diet feeding (as described in Example 1) are initiated on the same day and are carried out for six weeks. The effects of the treatments and diet on liver mass and hepatic lipid accumulation are assessed as described in the preceding examples. […] In this study, the prophylactic effects of sub-therapeutic leucine alone, and co-administration of leucine and the PDE5-specific inhibitor icariin on liver mass and hepatic steatosis are assessed. C57Bl/6 mice are assigned to the following experimental groups as depicted in Table 27: Drug treatments and high fat diet feeding (as described in Example 1) are initiated on the same day and are carried out for six weeks. The effects of the treatments and diet on liver mass and hepatic lipid accumulation are assessed as described in the preceding examples.

In experiment [5] the test system is hepatic steatosis (lipid vesicles in liver cells). The experiment can be described thus: Histological analysis of hepatic lipid accumulation after high fat diet. The settings on record: Example 3; HFD mice, six weeks; therapeutic metformin; combination: leucine + metformin 0.5 g/kg.
Text: as §1
In this study, the effects of metformin alone (therapeutic dose), subtherapeutic metformin alone, subtherapeutic leucine, and various combinations of leucine, metformin, and resveratrol on liver weight and hepatic lipid accumulation were assessed. The 1.5 g/kg diet of metformin corresponds to a therapeutically effective dose of metformin in humans. […] Likewise, the 24 g/kg dose of leucine represents a sub-therapeutic dose that was predicted to exert no significant independent effects on liver mass or hepatic steatosis. […]
In this study, the effects of metformin alone (therapeutic dose) vs. combination therapy with sub-therapeutic amounts of metformin and leucine on liver weight and hepatic lipid accumulation were assessed. […]

Take `COc1ccc(-c2oc3c(CC=C(C)C)c(O[C@@H]4O[C@H](CO)[C@@H](O)[C@H](O)[C@H]4O)cc(O)c3c(=O)c2O[C@@H]2O[C@@H](C)[C@H](O)[C@@H](O)[C@H]2O)cc1` [icariin]: in experiment [1], the “Effect on hepatic lipid accumulation” value is recorded as “no effect” and the “Effect on liver mass” value was “no effect”.
For metformin, the “Effect on liver weight” value in experiment [2] (Example 2, leucine 24 g/kg diet, resveratrol 12.5 mg/kg diet) was “partially reverse the effect of high fat diet on liver weight”; in experiment [2] (Example 3), “reversed the effect of high fat diet on liver weight back to control levels”; in experiment [2] (Example 4), “reversed the effect of high fat diet on liver weight back to control levels”. Besides, in experiment [3], the “Effect on liver triglycerides” value is given as “partially reversed the effect of high fat diet on liver triglycerides”. The “Effect on HFD-induced hepatic lipid accumulation” value in experiment [4] is “attenuates”. Further, the “Effect on HFD-induced increase in liver mass” value in experiment [4] is reported as “attenuates”. In experiment [5], the “Effect on hepatic steatosis (histological analysis)” value is listed as “partially reversed hepatic steatosis”.
